Paper PMC2836797 (FEBS letters, 2010)

Legend:
Assay type in all cases: biochemical
[1] = molecular target: ND1 subunit of NADH:ubiquinone oxidoreductase (complex I) (Bos taurus, UniProt P03887); assay: photoaffinity labeling of SMP with [3H]BPA, BN-PAGE/dSDS-PAGE radioactivity
[2] = molecular target: ND2 subunit of NADH:ubiquinone oxidoreductase (complex I) (Bos taurus, UniProt P03892)
[3] = molecular target: ND5 subunit of NADH:ubiquinone oxidoreductase (complex I) (Bos taurus, UniProt P03920); conditions: read-out: -6M urea

Measured: IC50

Chain of ND1 subunit of NADH:ubiquinone oxidoreductase (complex I) (P03887 whole entry, one chain of several): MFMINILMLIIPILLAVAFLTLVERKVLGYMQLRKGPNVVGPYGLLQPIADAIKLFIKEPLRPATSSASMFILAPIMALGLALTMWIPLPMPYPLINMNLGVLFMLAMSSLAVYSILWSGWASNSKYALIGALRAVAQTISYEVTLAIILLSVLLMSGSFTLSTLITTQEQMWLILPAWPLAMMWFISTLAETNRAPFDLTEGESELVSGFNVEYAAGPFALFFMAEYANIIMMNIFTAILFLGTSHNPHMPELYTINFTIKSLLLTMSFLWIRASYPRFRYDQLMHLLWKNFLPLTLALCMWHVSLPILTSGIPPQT
Chain of ND5 subunit of NADH:ubiquinone oxidoreductase (complex I) (P03920 whole entry, one chain of several): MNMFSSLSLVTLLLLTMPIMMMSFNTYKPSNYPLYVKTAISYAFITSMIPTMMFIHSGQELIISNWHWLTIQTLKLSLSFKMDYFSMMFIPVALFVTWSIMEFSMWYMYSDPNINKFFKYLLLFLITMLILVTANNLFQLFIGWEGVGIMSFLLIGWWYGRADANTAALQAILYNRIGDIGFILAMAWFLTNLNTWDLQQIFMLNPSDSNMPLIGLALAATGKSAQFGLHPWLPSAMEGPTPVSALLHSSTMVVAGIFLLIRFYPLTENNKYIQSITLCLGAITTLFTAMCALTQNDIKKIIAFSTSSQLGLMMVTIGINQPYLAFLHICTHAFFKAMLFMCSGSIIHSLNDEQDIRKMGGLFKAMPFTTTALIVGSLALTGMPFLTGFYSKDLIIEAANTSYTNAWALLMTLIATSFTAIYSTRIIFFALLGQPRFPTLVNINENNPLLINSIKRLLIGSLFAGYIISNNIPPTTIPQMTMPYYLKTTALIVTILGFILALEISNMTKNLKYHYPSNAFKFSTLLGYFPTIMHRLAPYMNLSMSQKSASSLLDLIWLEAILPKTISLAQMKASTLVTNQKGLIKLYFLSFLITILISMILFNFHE
Chain of ND2 subunit of NADH:ubiquinone oxidoreductase (complex I) (P03892 whole entry, one chain of several): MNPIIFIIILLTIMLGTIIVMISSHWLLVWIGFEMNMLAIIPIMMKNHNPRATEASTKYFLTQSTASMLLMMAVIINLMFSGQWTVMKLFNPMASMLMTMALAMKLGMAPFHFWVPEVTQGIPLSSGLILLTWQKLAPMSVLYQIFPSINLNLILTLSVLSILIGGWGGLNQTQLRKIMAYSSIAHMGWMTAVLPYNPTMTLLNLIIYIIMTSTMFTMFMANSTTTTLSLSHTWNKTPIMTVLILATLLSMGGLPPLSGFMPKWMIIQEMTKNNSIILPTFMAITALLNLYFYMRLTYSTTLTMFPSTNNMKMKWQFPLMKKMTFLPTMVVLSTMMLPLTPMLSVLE

benzophenone-asimicin [BPA]
~1 nM: [1] | [2] | [3]
